Laboratory results: patent publication US7625841B2, “Substituted thiene-3-ylsulphonylamino(thio)carbonyltriazolin(ethi)ones” (Bayer CropScience AG, priority 2001, dated 2009)

Legend:
Format in all cases: in vivo
[1] = test system: Alopecurus; assay: Post-emergence test/greenhouse; settings: greenhouse, application rate 15 gai/ha, rated after three weeks, 0%=no effect, 100%=total destruction
Protocol: (§1) • Solvent: 5 parts by weight of acetone • Emulsifier: 1 part by weight of alkylaryl polyglycol ether
(§2) To produce a suitable preparation of active compound, 1 part by weight of active compound is mixed with the stated amount of solvent, the stated amount of emulsifier is added and the concentrate is diluted with water to the desired concentration.
(§3) Test plants of a height of 5-15 cm are sprayed with the preparation of active compound such that the particular amounts of active compound desired are applied per unit area. The concentration of the spray liquor is chosen such that the particular amounts of active compound desired are applied in 1000 l of water/ha.
(§4) After three weeks, the degree of damage to the plants is rated in % damage in comparison to the development of the untreated control.
(§5) The figures denote: • 0%=no effect (like untreated control) • 100%=total destruction

[2] = test system: Avena fatua; assay: Post-emergence test/greenhouse; settings: greenhouse, application rate 15 gai/ha, rated after three weeks, 0%=no effect, 100%=total destruction
Protocol: as §1, §2, §3, §4, §5

[3] = test system: Bromus; assay: Post-emergence test/greenhouse; settings: greenhouse, application rate 15 gai/ha, rated after three weeks, 0%=no effect, 100%=total destruction
Protocol: as §1, §2, §3, §4, §5

[4] = test system: Digitaria; assay: Post-emergence test/greenhouse; settings: greenhouse, application rate 15 gai/ha, rated after three weeks, 0%=no effect, 100%=total destruction
Protocol: as §1, §2, §3, §4, §5

[5] = test system: Echinochloa; assay: Post-emergence test/greenhouse; settings: greenhouse, application rate 15 gai/ha, rated after three weeks, 0%=no effect, 100%=total destruction
Protocol: as §1, §2, §3, §4, §5

[6] = test system: Lolium; assay: Post-emergence test/greenhouse; settings: greenhouse, application rate 15 gai/ha, rated after three weeks, 0%=no effect, 100%=total destruction
Protocol: as §1, §2, §3, §4, §5

[7] = test system: Setaria; assay: Post-emergence test/greenhouse; settings: greenhouse, application rate 15 gai/ha, rated after three weeks, 0%=no effect, 100%=total destruction
Protocol: as §1, §2, §3, §4, §5

[8] = test system: maize; assay: Post-emergence test/greenhouse; settings: greenhouse, application rate 15 gai/ha, rated after three weeks, 0%=no effect, 100%=total destruction
Protocol: as §1, §2, §3, §4, §5

[9] = test system: Alopecurus; assay: Pre-emergence test/greenhouse; settings: greenhouse, application rate 15 gai/ha, rated after three weeks, 0%=no effect, 100%=total destruction
Protocol: as §1
(§6) To produce a suitable preparation of active compound, 1 part by weight of active compound is mixed with the stated amount of solvent, the stated amount of emulsifier is added and the concetrate is diluted with water to the desired concentration.
(§7) Seeds of the test plants are sown in normal soil. After 24 hours, the soil is sprayed with the preparation of active compound such that the particular amount of active compound desired is applied per unit area. The concentration of active compound in the spray liquor is chosen such that the particular amount of active compound desired is applied in 1000 litres of water per hectare.
(§8) After three weeks, the degree of damage to the plants is rated in % damage in comparison to the development of the untreated control. The figures denote: • 0%=no effect (like untreated control) • 100%=total destruction

[10] = test system: Amaranthus; assay: Pre-emergence test/greenhouse; settings: greenhouse, application rate 15 gai/ha, rated after three weeks, 0%=no effect, 100%=total destruction
Protocol: as §1, §6, §7, §8

[11] = test system: Matricaria; assay: Pre-emergence test/greenhouse; settings: greenhouse, application rate 15 gai/ha, rated after three weeks, 0%=no effect, 100%=total destruction
Protocol: as §1, §6, §7, §8

[12] = test system: Setaria; assay: Pre-emergence test/greenhouse; settings: greenhouse, application rate 15 gai/ha, rated after three weeks, 0%=no effect, 100%=total destruction
Protocol: as §1, §6, §7, §8

[13] = test system: Stellaria; assay: Pre-emergence test/greenhouse; settings: greenhouse, application rate 15 gai/ha, rated after three weeks, 0%=no effect, 100%=total destruction
Protocol: as §1, §6, §7, §8

[14] = test system: maize; assay: Pre-emergence test/greenhouse; settings: greenhouse, application rate 15 gai/ha, rated after three weeks, 0%=no effect, 100%=total destruction
Protocol: as §1, §6, §7, §8

[15] = test system: soybeans; assay: Pre-emergence test/greenhouse; settings: greenhouse, application rate 15 gai/ha, rated after three weeks, 0%=no effect, 100%=total destruction
Protocol: as §1, §6, §7, §8

[16] = test system: wheat; assay: Pre-emergence test/greenhouse; settings: greenhouse, application rate 15 gai/ha, rated after three weeks, 0%=no effect, 100%=total destruction
Protocol: as §1, §6, §7, §8

[17] = test system: weeds; assay: Post-emergence test, summary for weeds
Protocol: as §1, §2, §3, §4, §5

[18] = test system: crop plants such as, for example, maize, oilseed rape and wheat; assay: Post-emergence test, summary for crop plants
Protocol: as §1, §2, §3, §4, §5

[19] = test system: weeds; assay: Pre-emergence test, summary for weeds
Protocol: as §1, §6, §7, §8

[20] = test system: crop plants, such as, for example, maize, soyabean and wheat; assay: Pre-emergence test, summary for crop plants
Protocol: as §1, §6, §7, §8

[21] = test system: Viola; assay: Post-emergence test/greenhouse; settings: greenhouse, application rate 15 gai/ha, rated after three weeks, 0%=no effect, 100%=total destruction
Protocol: as §1, §2, §3, §4, §5

[22] = test system: wheat; assay: Post-emergence test/greenhouse; settings: greenhouse, application rate 15 gai/ha, rated after three weeks, 0%=no effect, 100%=total destruction
Protocol: as §1, §2, §3, §4, §5

[23] = test system: Lolium; assay: Pre-emergence test/greenhouse; settings: greenhouse, application rate 15 gai/ha, rated after three weeks, 0%=no effect, 100%=total destruction
Protocol: as §1, §6, §7, §8

[24] = test system: Solanum; assay: Pre-emergence test/greenhouse; settings: greenhouse, application rate 15 gai/ha, rated after three weeks, 0%=no effect, 100%=total destruction
Protocol: as §1, §6, §7, §8

[25] = test system: Bromus; assay: Pre-emergence test/greenhouse; settings: greenhouse, application rate 15 gai/ha, rated after three weeks, 0%=no effect, 100%=total destruction
Protocol: as §1, §6, §7, §8

[26] = test system: Polygonum; assay: Pre-emergence test/greenhouse; settings: greenhouse, application rate 15 gai/ha, rated after three weeks, 0%=no effect, 100%=total destruction
Protocol: as §1, §6, §7, §8

[27] = test system: Datura; assay: Post-emergence test/greenhouse; settings: greenhouse, application rate 15 gai/ha, rated after three weeks, 0%=no effect, 100%=total destruction
Protocol: as §1, §2, §3, §4, §5

[28] = test system: Polygonum; assay: Post-emergence test/greenhouse; settings: greenhouse, application rate 15 gai/ha, rated after three weeks, 0%=no effect, 100%=total destruction
Protocol: as §1, §2, §3, §4, §5

[29] = test system: Xanthium; assay: Post-emergence test/greenhouse; settings: greenhouse, application rate 15 gai/ha, rated after three weeks, 0%=no effect, 100%=total destruction
Protocol: as §1, §2, §3, §4, §5

[30] = test system: Xanthium; assay: Pre-emergence test/greenhouse; settings: greenhouse, application rate 15 gai/ha, rated after three weeks, 0%=no effect, 100%=total destruction
Protocol: as §1, §6, §7, §8

SMILES | degree of damage to the plants, Alopecurus [1] [%] | degree of damage to the plants, Avena fatua [2] [%] | degree of damage to the plants, Bromus [3] [%] | degree of damage to the plants, Echinochloa [5] [%] | degree of damage to the plants, Lolium [6] [%] | degree of damage to the plants, maize [8] [%] | degree of damage to the plants, Alopecurus [9] [%] | degree of damage to the plants, Amaranthus [10] [%] | degree of damage to the plants, Matricaria [11] [%] | degree of damage to the plants, Stellaria [13] [%] | degree of damage to the plants, maize [14] [%] | degree of damage to the plants, wheat [16] [%] | activity against weeds compared with the known compounds (A) and (B) [17] | compatibility with crop plants compared with the known compounds (A) and (B) [18] | activity against weeds compared with the known compounds (A) to (G) [19] | tolerance by crop plants [20] | degree of damage to the plants, wheat [22] [%] | degree of damage to the plants, Lolium [23] [%] | degree of damage to the plants, Solanum [24] [%] | degree of damage to the plants, Bromus [25] [%] | other results
COCc1nn(C(=O)NS(=O)(=O)c2c(C(=O)OC)csc2C)c(=O)n1C [Example 18] | 95 | 95 | 80 | 95 | 95 | 0 | 95 | 95 | 100 | 95 | 0 | 0 | considerably stronger activity against weeds | substantially better compatibility with crop plants | considerably stronger activity against weeds | tolerated well by crop plants |  |  |  |  | degree of damage to the plants, Digitaria [4]: 95%; degree of damage to the plants, Setaria [7]: 100%; degree of damage to the plants, Setaria [12]: 95%; degree of damage to the plants, soybeans [15]: 0%
CCSc1nn(C(=O)NS(=O)(=O)c2c(C(=O)OC)csc2C)c(=O)n1C [Example 20] | 90 |  | 80 | 100 |  |  | 90 | 95 | 100 | 100 | 0 | 0 | considerably stronger activity against weeds | substantially better compatibility with crop plants | considerably stronger activity against weeds | tolerated well by crop plants | 0 | 95 | 100 |  | degree of damage to the plants, Viola [21]: 100%; degree of damage to the plants, soybeans [15]: 0%
COC(=O)c1csc(C)c1S(=O)(=O)NC(=O)n1nc(C2CC2)n(C)c1=O [Example 22] | 99 | 80 | 95 |  |  | 0 | 95 |  |  | 100 | 0 | 0 | considerably stronger activity against weeds | substantially better compatibility with crop plants | considerably stronger activity against weeds | tolerated well by crop plants | 0 | 95 | 100 | 100 | degree of damage to the plants, Digitaria [4]: 95%; degree of damage to the plants, Setaria [7]: 90%; degree of damage to the plants, Polygonum [26]: 95%
CCOC(=O)c1csc(C)c1S(=O)(=O)NC(=O)n1nc(OCC)n(C)c1=O [Example 55] | 90 |  | 90 | 90 | 90 | 0 | 95 |  |  | 100 | 0 | 0 | considerably stronger activity against weeds | substantially better compatibility with crop plants | considerably stronger activity against weeds | tolerated well by crop plants |  | 90 | 100 | 95 | degree of damage to the plants, Datura [27]: 95%; degree of damage to the plants, Polygonum [28]: 90%; degree of damage to the plants, Xanthium [29]: 95%; degree of damage to the plants, Polygonum [26]: 95%; degree of damage to the plants, Xanthium [30]: 95%
CCOC(=O)c1csc(C)c1S(=O)(=O)NC(=O)n1nc(OC)n(C2CC2)c1=O [Example 56] |  | 90 | 90 | 95 | 90 |  |  | 100 | 100 | 100 | 0 | 0 | considerably stronger activity against weeds | substantially better compatibility with crop plants | considerably stronger activity against weeds | tolerated well by crop plants | 0 | 95 | 100 | 95 | degree of damage to the plants, Datura [27]: 90%; degree of damage to the plants, Viola [21]: 95%; degree of damage to the plants, Xanthium [29]: 95%; degree of damage to the plants, Xanthium [30]: 95%
